The subject of this assay is methicillin resistant S. aureus (MRSA43484). It counts as in vivo, Balb/c female mice. Here is the method: The mouse model was performed under contract at Statens Serum Institut (DK) essentially as previously described ([64]). […] All animal experiments were approved by the National Committee of Animal Ethics, Denmark. Mice were anesthetized, and the hair was removed on a 2 cm^2 skin area on the back, and thereafter, the outermost layer of the skin was scraped off with a dermal curette to obtain a 1 cm^2 superficial skin lesion. For vehicle control and Fucidin treatment, 10 μL inoculum containing approximately 10^7 CFU of methicillin resistant S. aureus (MRSA43484) were spread on the skin lesions. […] This leads to the absolute application of 1 nmol, corresponding to ~10-fold less inhibitory AIP than previously tested in other murine epicutaneous infection models ([12], [13], [15]). After the inoculum had dried, the mice were placed in a cage and kept in a warming cabinet until fully awake. The topical skin treatment with Fucidin was initiated one day after inoculation (days 2, 3, and 4) by spreading 50 μL of Fucidin on the inoculated skin area once a day. Skin lesion size and body weight were measured on days 1, 2, and 4 of all mice. Mice were sacrificed on days 1 (n = 8 vehicle), 2 (n = 4 vehicle, Fucidin, 33), and 4 (n = 4 vehicle, Fucidin, 33), and the infected skin area was cut out and homogenized to determine the CFU count in the skin lesions. Statistical testing was conducted using one-way analysis of variance (ANOVA) with multiple comparisons (Dunnett’s test) and an alpha level of 0.05.

Positions of bridges follow the written chain, without caps; N, C: chain ends. Residues, ends and D or L forms follow the SMILES beside them.

`NCCCC[C@H](N)C(=O)N[C@@H](Cc1ccc(O)cc1)C(=O)N[C@@H](Cc1ccc(O)cc1)C(=O)N1CCC[C@H]1C(=O)N[C@H]1CSC(=O)[C@H](Cc2ccccc2)NC(=O)[C@H](Cc2ccc(O)cc2)NC(=O)CNC(=O)[C@H](Cc2c[nH]c3ccccc23)NC1=O` [compound 33, S. simulans AIP-II] (H-KYYPCWGYF; thioester 5-C): the “skin lesion size compared with the vehicle control after 48 h” value (33: 100 μM in MRSA inoculum (10^7 CFU), single, Fucidin daily, P = 0.0174 (33), P = 0.0108 (fusidic acid)) was “significant reduction”. Further, the “skin lesion size compared with the vehicle control after 96 h” value (33: 100 μM in MRSA inoculum (10^7 CFU), single, Fucidin daily, P = 0.0249 (33), P = 0.0202 (fusidic acid)) is reported as “significant reduction”. Also, the “decrease in bacterial load compared with vehicle control after 4 days” value (33: 100 μM single (P = 0.009), fusidic acid daily (P = 0.0168)) is ~ 60 fold.

The values are drawn from paper PMC12345137 (mBio, 2025).
